Assay results published in the OPERA property sets (Mansouri et al. 2018).

Compared with CC=Cc1ccc(O)c(OC)c1, Cc1ccc(C(C)C)cc1O is higher in logP: 3.04 for the first, 3.49 for the second.

C=C(C)C1CCC2(C)OC2C1 (centres undefined) and C=C(C)C1CCC(C)C(O)C1 (centres undefined) are within 0.2 log units of each other in logP: 3.2 for the first, 3.21 for the second.

CC1(C)[C@@H]2CC[C@@]1(C)[C@H](O)C2 and CC1(C)[C@H]2CC[C@](C)(C2)[C@H]1O are within 0.2 log units of each other in logP: 3.24 for the first, 3.17 for the second.

Going from C=CC1(C)CCC(C(C)(C)O)O1 (centres undefined) to CC1=CCC(C(C)(C)O)C[C@@H]1O (some centres undefined), the logP falls from 2.43 to 1.81.

C=C(C)C1CCC(C)C(=O)C1 (centres undefined) and C=C(C)[C@@H]1CC=C(C)C(=O)C1 are within 0.2 log units of each other in logP: 2.85 for the first, 2.71 for the second.

First: CC(C)=CCC[C@@H](C)CC=O
Second: CC(C)=CCC/C(C)=C/CO
The logP of the first is higher: 3.83 for the first, 3.56 for the second.

Compared with CC(C)[C@@H]1CC[C@@H](C)CC1=O, CC1CCC(C(C)C)C(O)C1 (centres undefined) is higher in logP: 3.05 for the first, 3.4 for the second.

CC(=O)OC1CC(C)CCC1C(C)C (racemic) and CC(=O)OC(C)(C)C1CC=C(C)CC1 (centres undefined) are within 0.2 log units of each other in logP: 4 for the first, 3.96 for the second.

First: CC1=CC(=O)[C@H]2C[C@@H]1C2(C)C
Second: CC1=CC(O)C2CC1C2(C)C (centres undefined)
The logP of the first is lower: 2.23 for the first, 3.16 for the second.

First: CC1=CCC(O)(C(C)C)CC1 (centres undefined)
Second: CC1=CC=C(C(C)C)CC1
The logP of the first is lower: 3.26 for the first, 4.25 for the second.

Compared with CC1(C)C2CCC(CN)C1C2 (centres undefined), C=C1CCC2CC1C2(C)C (centres undefined) is higher in logP: 2.05 for the first, 4.16 for the second.

CC(=O)OC/C=C(\C)CCC=C(C)C and C=CC(C)(CCC=C(C)C)OC(C)=O (centres undefined) are within 0.2 log units of each other in logP: 4.04 for the first, 3.93 for the second.

C=C(C)C1CC=C(C)C(O)C1 (centres undefined) and C=C(C)[C@@H]1CC=C(C=O)CC1 are within 0.2 log units of each other in logP: 3.12 for the first, 3.13 for the second.

Going from CC1(C)C2CC=C(C=O)C1C2 (centres undefined) to CC1(C)C2CC=C(CO)C1C2 (centres undefined), the logP rises from 2.98 to 3.22.

Compared with CC1=CCC2C(C1=O)C2(C)C (centres undefined), CC1=CCC2C(C1)C2(C)C (centres undefined) is higher in logP: 2.42 for the first, 4.38 for the second.

Going from CC12CCC(CC1)C(C)(C)O2 to CC12CCC(C1)C(C)(C)C2=O (centres undefined), the logP rises from 2.74 to 3.52.

Going from CC1=CC2C(CC1)C2(C)C (centres undefined) to CC1=CC(=O)C(C(C)C)CC1 (centres undefined), the logP falls from 4.44 to 2.85.

First: CC(=O)/C=C/C1C(C)=CCCC1(C)C (centres undefined)
Second: C=C1[C@H]2CC[C@H](C2)C1(C)C
The logP of the first is lower: 3.85 for the first, 4.22 for the second.

CC(C)C12CCC(C)(CC1)O2 and CC(C)=C1CC[C@@H](C)CC1=O are within 0.2 log units of each other in logP: 2.97 for the first, 3.08 for the second.

Work on C=C(C)C1CC=C(CO)CC1 (centres undefined) yielded a logP of 3.17.
